Data: US11214540B2, “Compositions for treating neurodegenerative diseases” (COGNITION THERAPEUTICS, INC., priority 2017, dated 2022)
pEC50: −log10 of the molar value.

Assays:
[1] = tested on: Abeta oligomer-induced membrane trafficking deficits in primary hippocampal neurons; assay: Membrane Trafficking/Exocytosis (MTT) assay, Abeta oligomer effect on neurons; assay type: cell-based, rat; conditions: membrane trafficking; read-out: EC50 Abeta;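 note: compound potency for inhibiting the Abeta oligomer effect on exocytosis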
How it was run: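 Rat E18 hippocampal neurons cultured 3 weeks received compound (100 uM to 0.001 nM), then vehicle or Abeta 1-42 oligomers (3 μM total Abeta), for 1-24 h at 37 °C. MTT was added for 1 h, and formazan vesicle exocytosis was quantified by automated imaging with DAPI toxicity check. Tukey-Kramer comparisons were made with N=4.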

[2] = Mouse liver microsome (MLM) stability; assay type: in vitro ADME; conditions: microsomal stability in mouse liver microsomes (MLM)
Experimental: A first pharmacokinetic study was performed in microsomes of mice mouse liver microsomes, MLM).
Microsomal stability experiments and plasma stability experiments were performed to determine metabolic and hepatic stability of candidate compounds.

[3] = log P; assay type: physicochemical
How it was run: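 Ratio of un-ionized compound concentrations between octanol and water, with aqueous pH set so the un-ionized form predominates. Value given as the log of the octanol/water ratio.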

MLM T1/2 [2] [min]	log P [3]	SMILES	pEC50 [1]
1.3	3.69	COc1ccc(CCC(C=C(C)C)N2CCOCC2)cc1 (stereo not drawn) [Compound 104]	4.70
7.3	4.46	COc1ccc(C(C)(C)CC(C=C(C)C)N(C)C2CCOCC2)cc1 (stereo not drawn) [Compound 108]	4.70
5.4	5.13	CC(C)=CC(CC(C)(C)c1ccc(C)cc1)N(C)C1CCOCC1 (stereo not drawn) [Compound 109]	4.70
8.7	5.78	CC(C)=CC(CC(C)(C)c1ccc(C)cc1)N1CCC2(CCOCC2)CC1 (stereo not drawn) [Compound 97]	5.00
8.2	4.92	COc1ccc(C(C)(C)CC(C=C(C)C)N(C)CC2CCOCC2)cc1 (stereo not drawn) [Compound 113]	4.70
7.4	4.08	COc1ccc(C(C)(C)CC(C=C(C)C)NC2CCOCC2)cc1 (stereo not drawn) [Compound 99]	4.70
1.5	4.45	CC(C)=CC(CCc1ccc(Cl)cc1)N1CCOCC1 (stereo not drawn) [Compound 95]	4.70
6.8	5.68	CC(C)=CC(CC(C)(C)c1ccc(Cl)cc1)N(C)CC1CCOCC1 (stereo not drawn) [Compound 111]	4.70
1.5	4.9	COc1ccc(C(C)(C)CC(C=C(C)C)NCCC2CCOCC2)cc1 (stereo not drawn) [Compound 102]	4.70
1.8	5.43	CC(C)=CC(CCc1ccc(C)cc1)N1CCCCC1 (stereo not drawn) [Compound 94]	4.70
1.8	5.57	CC(C)=CC(CC(C)(C)c1ccc(C)cc1)NCCC1CCOCC1 (stereo not drawn) [Compound 101]	5.02
3.4	4.36	CC(C)=CC(CCc1ccc(C)cc1)N1CCOCC1 (stereo not drawn) [Compound 93]	4.70
1.7	5.11	COc1ccc(C(C)(C)CC(C=C(C)C)N2CCC3(CCOCC3)CC2)cc1 (stereo not drawn) [Compound 98]	4.70
3.9	5.35	COc1ccc(C(C)(C)CC(C=C(C)C)NCCCC2CCOCC2)cc1 (stereo not drawn) [Compound 106]	4.70
6.2	5.52	CC(C)=CC(CCc1ccc(Cl)cc1)N1CCCCC1 (stereo not drawn) [Compound 96]	5.80
1.1	4.76	COc1ccc(CCC(C=C(C)C)N2CCCCC2)cc1 (stereo not drawn) [Compound 103]	4.70
2.6	5.73	COc1ccc(C(C)(C)CC(C=C(C)C)N(C)CCCC2CCOCC2)cc1 (stereo not drawn) [Compound 110]	4.70
3.5	5.21	CC(C)=CC(CC(C)(C)c1ccc(C)cc1)N1CCC2(CC1)COC2 (stereo not drawn) [Compound 107]	4.70
1.3	5.72	CC(C)=CC(CCc1ccc(Cl)cc1)N1CCC(C2CCOCC2)CC1 (stereo not drawn) [Compound 105]	4.70
4.5	4.75	CC(C)=CC(CC(C)(C)c1ccc(C)cc1)NC1CCOCC1 (stereo not drawn) [Compound 100]	4.87
